Results on 21 compounds are retold here after patent publication US10392422B2, “Macrocyclic broad spectrum antibiotics” (priority 2014, dated 2019).

Converted amounts (≈) assume the structure as drawn. Read-outs that look alike come from different tables or passages of the source.

Holding throughout (experiment): MIC, broth micro-dilution technique (CLSI)
In general terms: Dilution methods test growth across graded concentrations, often in twofold steps.

Assay [1] relates to Methicillin Resistant Staphylococcus aureus strain USA 300 (NRS384). Format: cell-based. The note with it: for MIC: Staphylococcus aureus, 22 h, read-out: MIC (μg/mL) S. aureus. The gist of the method: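 CLSI broth microdilution in cation-adjusted Mueller Hinton broth with 0.002% v/v Tween-80. Compounds were serially 2-fold diluted over 10 concentrations from 64 μg/ml, or from 4 μg/mL in a modified protocol; inoculum at final OD600 0.0005, incubated 35° C for 22 hours.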

Assay [2] has as its system Escherichia coli MC4100 harboring the IMP4213. Format: cell-based. Conditions: 35° C., 22 hours; for MIC: Escherichia coli, 22 h. The gist of the method: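 MICs determined after 35 °C, 22 h incubation of bacteria (final OD600 0.0005) with 10-point 2-fold compound series. Series topped at 64 μg/ml in the standard protocol or 4 μg/mL in the modified one. Medium: cation-adjusted Mueller Hinton broth plus 0.002% Tween-80. E. coli MC4100 imp4213 has a permeabilized outer membrane.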

For assay [3], the system named is MRSA COL (NRS100). Format: cell-based, Staphylococcus aureus. The note with it: for MIC: Staphylococcus aureus, 22 h, read-out: MIC (μg/mL) (COL). The protocol:
In vitro antimicrobial activity of each compound was determined by measuring minimal inhibitor concentrations (MICs) using the broth micro-dilution technique as approved by the Clinical and Laboratory Standards Institute (CLSI) (Methods for Dilution Antimicrobial Susceptibility Tests for Bacteria that Grow Aerobically; Approved Standard—Eighth Edition. CLSI document M07-A8. Wayne, Pa.: Clinical and Laboratory Standards; 2009). Antibacterial activity was measured against three strains of bacteria: a Methicillin Resistant Staphylococcus aureus strain USA 300 (NRS384); a MRSA COL (NRS100), another Methicillin Resistant Staphylococcus aureus strain; and a strain of Escherichia coli MC4100 harboring the IMP4213, which results in increased outer-membrane permeability (B Martin and Silhavy T. Imp/OstA is required for cell envelope biogenesis in Escherichia coli. (2002) Molecular Microbiology, 45(5), 1289-1302). Cells were inoculated onto plates of Trypyticase Soy Agar or Luria Agar respectively and grown at 35° C. for 20 hours. Inocula suspensions were prepared by scraping cells into 1 ml of testing media (cation adjusted Mueller Hinton Broth supplemented with 0.002% v/v Tween-80) and diluting to a final OD600 nm of 0.01.
Test compounds were prepared in DMSO at a concentration of 10 mg/ml. These compound stocks were diluted into testing media at a concentration of 64 μg/ml and serial 2-fold dilutions were made in the same media, in 96-well U bottom microtiter dishes, for a total of 10 compound concentrations (Table 1). In modified protocols (Table 2), compound stocks were diluted into testing media at a concentration of 4 μg/mL and serial 2-fold dilutions were made in the same media, in 96-well U bottom microtiter dishes, for a total of 10 compound concentrations. Inocula suspensions were added to the 2-fold serial dilutions of test compounds to a final density of OD OD600 nm of 0.0005 and incubated at 35° C. for 22 hours. […] The results from the protocol starting from a concentration of 64 µg/mL are listed in Table 1 and the results from the modified protocol are shown in Table 2.

Where [4] appears, read: Table 1 protocol: serial 2-fold dilutions starting from 64 μg/ml, 35° C., 22 hours.
Where [5] appears, read: read-out: MIC (μg/mL) E. coli, Table 1 protocol: serial 2-fold dilutions starting from 64 μg/ml.
Where [6] appears, read: read-out: MIC (μg/mL) E. coli, Table 2 modified protocol: serial 2-fold dilutions starting from 4 μg/mL.
[7] abbreviates: Table 2 modified protocol: serial 2-fold dilutions starting from 4 μg/mL, 35° C., 22 hours.

Regarding `CC(=O)[C@H](C)NC(=O)[C@@H]1Cc2ccc(O)c(c2)-c2cc(cc(CN)c2O)[C@H](N(C)C(=O)[C@H](CCCCN)NC(=O)c2ccc(-c3ccccc3)cc2)C(=O)N[C@@H](C)C(=O)N1` [Compound 210], the MIC in assay [1] (setting [4]) was 32 µg/mL (≈ 39 µM); in assay [2] (setting [5]), 32 µg/mL (≈ 39 µM); in assay [3] (setting [4]), 4 µg/mL (≈ 4.88 µM).
In the case of `C[C@@H]1NC(=O)[C@@H](N(C)C(=O)[C@H](CCCCN)NC(=O)c2ccc(-c3ccc(Cl)cc3)cc2)c2ccc(O)c(c2)-c2cc(ccc2O)C[C@@H](C(=O)N[C@@H](C)C(=O)c2nnn[nH]2)NC1=O` [Compound 134], the values for the MIC in assay [1] (setting [4]), in assay [2] (setting [5]) and in assay [3] (setting [4]) were 2.8 µg/mL (≈ 3.18 µM), 45 µg/mL (≈ 51.2 µM) and 0.75 µg/mL (≈ 0.853 µM), respectively.
For the compound `CCCCCCCCCCCC(=O)N[C@@H](CCN)C(=O)N(C)[C@@H]1C(=O)N[C@@H](C)C(=O)N[C@H](C(=O)O)Cc2ccc(OCCN)c(c2)-c2cc1ccc2OCCN` [Compound 304], the figures for the MIC in assay [1], in assay [2] (setting [6]) and in assay [3] were 0.5 µg/mL (≈ 0.639 µM), 0.047 µg/mL (≈ 0.0601 µM) and 0.13 µg/mL (≈ 0.166 µM), respectively.
Regarding `C[C@@H]1NC(=O)[C@@H](N(C)C(=O)[C@H](CCCCN)NC(=O)c2ccc(-c3ccc(Cl)cc3)cc2)c2ccc(O)c(c2)-c2cc(ccc2O)C[C@@H](C(=O)NCC(=O)c2nnn[nH]2)NC1=O` [Compound 244], the MIC in assay [1] (setting [7]) was more than 4 µg/mL; in assay [2] (setting [6]) it was more than 4 µg/mL; in assay [3] (setting [7]) it was 4 µg/mL (≈ 4.62 µM).
As for `CCCCCCCCCCNCCS(=O)(=O)N[C@@H](CCN)C(=O)N(C)[C@@H]1C(=O)N[C@@H](C)C(=O)N[C@H](C(=O)N[C@@H](C)C(C)=O)Cc2ccc(O)c(c2)-c2cc1ccc2O` [Compound 218], the figures for the MIC in assay [1], in assay [2] (setting [5]) and in assay [3] were 0.35 µg/mL (≈ 0.422 µM), more than 64 µg/mL and 0.13 µg/mL (≈ 0.157 µM), respectively.
The matching figures for `C[C@@H]1NC(=O)[C@@H](N(C)C(=O)[C@H](CCCCN)NC(=O)c2ccc(-c3ccc(Cl)cc3)cc2)c2cc(C#N)c(O)c(c2)-c2cc(ccc2O)C[C@@H](C(=O)O)NC1=O` [Compound 290]: 64 µg/mL (≈ 81.9 µM), 32 µg/mL (≈ 41 µM) and 32 µg/mL (≈ 41 µM).
Turning to `C[C@@H]1NC(=O)[C@@H](N(C)C(=O)[C@H](CCCCN)NC(=O)c2ccc(-c3ccc(Cl)cc3)cc2)c2ccc(O)c(c2)-c2cc(ccc2O)C[C@@H](C(=O)N[C@@H](C)/C=C\S(C)(=O)=O)NC1=O` [Compound 145], the MIC was more than 64 µg/mL in assay [1], more than 64 µg/mL in assay [2] (setting [5]) and 64 µg/mL (≈ 72.1 µM) in assay [3].
With `CC(=O)OCC(=O)[C@H](C)NC(=O)[C@@H]1Cc2ccc(O)c(c2)-c2cc(ccc2OCCN)[C@H](N(C)C(=O)[C@H](CCCCN)NC(=O)c2ccc(-c3ccc(Cl)cc3)cc2)C(=O)N[C@@H](C)C(=O)N1` [Compound 117], the MIC in assay [1] is 0.71 µg/mL (≈ 0.766 µM); in assay [2] (setting [5]) it was 1.6 µg/mL (≈ 1.73 µM); in assay [3], 0.22 µg/mL (≈ 0.237 µM).
On the same counts, the results for `CCCCCCCCCCCCCC(=O)N(C)[C@@H]1C(=O)N[C@@H](C)C(=O)N[C@H](C(=O)N[C@@H](C)B2O[C@@H]3C[C@@H]4C[C@@H](C4(C)C)[C@]3(C)O2)Cc2ccc(OCCN)c(c2)-c2cc1ccc2OCCN` [Compound 315] are 1 µg/mL (≈ 1.09 µM), 1 µg/mL (≈ 1.09 µM) and 0.5 µg/mL (≈ 0.546 µM).
For the compound `C[C@@H]1NC(=O)[C@@H](N(C)C(=O)[C@H](CCCCN)NC(=O)c2ccc(-c3ccc(Cl)cc3)cc2)c2ccc(O)c(c2)-c2cc(ccc2O)C[C@@H](C(=O)N[C@@H](C)C(=O)c2c[nH]cn2)NC1=O` [Compound 229], the MIC in assay [1] (setting [4]) came out at 4 µg/mL (≈ 4.56 µM); in assay [2] (setting [5]) it was 24 µg/mL (≈ 27.4 µM); in assay [3] (setting [4]), 1 µg/mL (≈ 1.14 µM).
The matching figures for `CC(=O)[C@H](C)NC(=O)[C@@H]1Cc2ccc(O)c(c2)-c2cc(cc(C#CCN)c2OCCN)[C@H](N(C)C(=O)[C@H](CCCCN)NC(=O)c2ccc(-c3ccc(Cl)cc3)cc2)C(=O)N[C@@H](C)C(=O)N1` [Compound 226]: 4 µg/mL (≈ 4.34 µM), 4 µg/mL (≈ 4.34 µM) and 0.25 µg/mL (≈ 0.271 µM).
As for `C[C@@H]1NC(=O)[C@@H](N(C)C(=O)[C@H](CCCCN)NC(=O)c2ccc(-c3ccc(C(F)(F)F)cc3)cc2)c2ccc(OCCN)c(c2)-c2cc(ccc2OCCN)C[C@@H](C(=O)O)NC1=O` [Compound 279], the MIC in assay [1] came out at 2 µg/mL (≈ 2.28 µM); in assay [2] (setting [6]) it was 0.25 µg/mL (≈ 0.285 µM); in assay [3], 0.5 µg/mL (≈ 0.571 µM).
For the compound `CCCCc1ccc(-c2ccc(C(=O)N[C@@H](CCCN)C(=O)N(C)[C@@H]3C(=O)N[C@@H](C)C(=O)N[C@H](C(=O)NS(=O)(=O)C(F)(F)F)Cc4ccc(OCCN)c(c4)-c4cc3ccc4OCCN)cc2)cc1` [Compound 338], the MIC in assay [1] (setting [7]) came to 3 µg/mL (≈ 3.06 µM); in assay [2] (setting [6]), 0.63 µg/mL (≈ 0.642 µM); in assay [3] (setting [7]), 2.5 µg/mL (≈ 2.55 µM).
As to `CCCCCCCCCCCCCC(=O)NC(CCCCN)C(=O)N(C)C1C(=O)NC(C)C(=O)NC(C(=O)NC(C)B2OC3CC4CC(C4(C)C)C3(C)O2)Cc2ccc(OCCN)c(c2)-c2cc1ccc2OCCN` (stereo not drawn) [Compound 314], in assay [1] (setting [4]), the “MIC (μg/mL) S. aureus” value is 0.063 µg/mL (≈ 0.0604 µM). Also, the “MIC (μg/mL) E. coli” value in assay [2] (Table 1 protocol: serial 2-fold dilutions starting from 64 μg/ml) worked out at 0.094 µg/mL (≈ 0.0901 µM). Moreover, the “MIC (μg/mL) (COL)” value in assay [3] (setting [4]) amounted to 0.012 µg/mL (≈ 0.0115 µM).
On to `CCCCCCCCCCS(=O)(=O)N[C@@H](CCCCN)C(=O)N(C)[C@@H]1C(=O)N[C@@H](C)C(=O)N[C@H](C(=O)N[C@@H](C)C(=O)c2nnn[nH]2)Cc2ccc(OCCN)c(c2)-c2cc1ccc2OCCN.O=CO` [Compound 258], for which the “MIC (μg/mL) S. aureus” value in assay [1] (setting [7]) is 0.047 µg/mL. The “MIC (μg/mL) E. coli” value in assay [2] (Table 2 modified protocol: serial 2-fold dilutions starting from 4 μg/mL) is 4 µg/mL. Further, in assay [3] (setting [7]), the “MIC (μg/mL) (COL)” value worked out at 0.012 µg/mL.
On to `CC(=O)[C@H](C)NC(=O)[C@@H]1Cc2ccc(O)c(c2)-c2cc(ccc2OCCO)[C@H](N(C)C(=O)[C@H](CCCCN)NC(=O)c2ccc(-c3ccc(Cl)cc3)cc2)C(=O)N[C@@H](C)C(=O)N1` [Compound 121], for which the MIC in assay [1] came to 8 µg/mL (≈ 9.2 µM); in assay [2] (setting [5]) it was 32 µg/mL (≈ 36.8 µM); in assay [3] it was 3 µg/mL (≈ 3.45 µM).
`C[C@H](NC(=O)[C@@H]1Cc2ccc(O)c(c2)-c2cc(ccc2O)[C@H](N(C)C(=O)[C@H](CCCCN)NC(=O)c2ccc(-c3ccc(Cl)cc3)cc2)C(=O)N[C@@H](C)C(=O)N1)C(=O)CNC=O` [Compound 240]: the MIC in assay [1] (setting [4]) came to 4 µg/mL (≈ 4.61 µM); in assay [2] (setting [5]) it was 48 µg/mL (≈ 55.3 µM); in assay [3] (setting [4]), 2 µg/mL (≈ 2.3 µM).
On the same counts, the results for `C[C@@H]1NC(=O)[C@@H](N(C)C(=O)[C@H](CCCCN)NC(=O)c2ccc(-c3ccc(Cl)cc3)cc2)c2ccc(O)c(c2)-c2cc(ccc2O)C[C@@H](C(=O)N[C@@H](C)C(=O)C(=O)NCc2cc[nH]n2)NC1=O` [Compound 141] are 8 µg/mL (≈ 8.56 µM), 32 µg/mL (≈ 34.2 µM) and 4 µg/mL (≈ 4.28 µM).
Turning to `C[C@H](NC(=O)[C@@H]1Cc2ccc(O)c(c2)-c2cc(ccc2O)[C@H](N(C)C(=O)[C@H](CCCCN)NC(=O)c2ccc(-c3ccc(Cl)cc3)cc2)C(=O)N[C@@H](C)C(=O)N1)C(=O)CNS(C)(=O)=O` [Compound 162], the MIC was determined as 8 µg/mL (≈ 8.71 µM) in assay [1], 32 µg/mL (≈ 34.8 µM) in assay [2] (setting [5]) and 2 µg/mL (≈ 2.18 µM) in assay [3].
In the case of `CCCCCCCCc1ccc(C(=O)N[C@@H](CO)C(=O)N(C)[C@@H]2C(=O)N[C@@H](C)C(=O)N[C@H](C(=O)O)Cc3ccc(OCCN)c(c3)-c3cc2ccc3OCCN)c(C)c1` [Compound 309], the MIC amounted to 0.5 µg/mL (≈ 0.612 µM) in assay [1], 0.031 µg/mL (≈ 0.0379 µM) in assay [2] (setting [6]) and 0.25 µg/mL (≈ 0.306 µM) in assay [3].
In the case of `C[C@@H]1NC(=O)[C@@H](N(C)C(=O)[C@H](CCCCN)NC(=O)c2ccc(-c3ccc(Cl)cc3)cc2)c2ccc(O)c(c2)-c2cc(ccc2O)C[C@@H](C(=O)N[C@@H](C)C(=O)N(CCO)CC(N)=O)NC1=O` [Compound 243], the MIC in assay [1] (setting [7]), in assay [2] (setting [6]) and in assay [3] (setting [7]) was more than 4 µg/mL throughout.
